This is an account of results in PMC11040670, “Mechanistic and Kinetic Insights into Cellular Uptake of Biomimetic Dinitrosyl Iron Complexes and Intracellular Delivery of NO for Activation of Cytoprotective HO-1” (JACS Au, 2024).

Each structure is given as a SMILES string.

The test system of this experiment is HCEC. As to the kind of experiment: Cytoprotection of HCEC against H2O2 oxidative stress. Format: cell-based, human. To be noted: HCEC pretreated 24 h with 75 μM DNIC–COOH, then H2O2. Here is the method: Cell viability study of MSC, N2a, and HCEC cells with or without the treatment of DNIC–COOH was performed using a Cell Counting Kit-8 (IMT Formosa New Materials Co., Ltd., Taiwan) according to the manufacturer’s protocol. Briefly, cells were seeded into a 96-well plate at a density of 4 × 10^3 cells/well for MSC, 1 × 10^4 cells/well for N2a, and 8 × 10^3 cells/well for HCEC, respectively, and incubated overnight. On the next day, cells were treated with DNIC–COOH at different concentrations and incubated for 24 h. The culture medium was then removed before the cells were washed with DPBS. After addition of fresh medium containing CCK-8 solution to the cells and incubation for 1–3 h, the absorbance at 450 nm was then measured on a microplate reader (SpectraMax iD3, Molecular Devices, San Jose, CA) with a reference wavelength of 650 nm. […]
To investigate the capacity of DNIC preconditioning to protect the MSC cells against elevated oxidative stress, cells were pretreated with 2.5 μM of DNIC–COOMe or 100 μM of DNIC–COOH for 8 h before being incubated with 250 μM H2O2 for another 24 h. Cell viability was evaluated by live/dead staining or CCK-8 assay. In a similar manner, DNIC-induced cytoprotective effect in HCECs was evaluated through pretreatment of 1 μM of DNIC–COOMe or 75 μM of DNIC–COOH for 24 h.

As for `O=[N][Fe]1([N]=O)[SH](CCC(=O)O)[Fe]([N]=O)([N]=O)[SH]1CCC(=O)O` (stereo not shown) [DNIC–COOH, [(NO)2Fe(μ-SCH2CH2COOH)2Fe(NO)2]], the “survival under mimic oxidative stress condition” value was “enhanced survival”.
